Converted amounts (≈) assume the structure as drawn. *1 amine or outer side, *2 acyl side, *3 side chain or, on linkers, in order; H or OH if unused. Where a SMILES comes first, the peptide text is derived from it. Bridges are numbered along the chain shown (N, C = ends). [ ]: non-standard residue; d: D form. Nle(6-ylidene) = O=C([C@H](CCCC=[*:3])N[*:1])[*:2]; S5 = C=CCCC[C@](C)(N)C(=O)O

Series [1] in a line: Drug metabolism assessed as trypsin (unknown origin)-mediated digestion at 0.09 uM after 15 mins by HPLC analysis. Format: ADME. As to conditions: human, 0.25 h; call rule not given here.
The subject of another series is Pseudomonas aeruginosa. In words: Antibacterial activity against Pseudomonas aeruginosa ATCC 27853 assessed as growth inhibition after 24 hrs by broth microdilution method. The class given is functional. As to conditions: ATCC 27853, 24 h. A general note: In broth dilution the organism is exposed to a series of concentrations in liquid medium.
The test system of a further series is Proteus mirabilis. Put plainly: Antibacterial activity against Proteus mirabilis ATCC 25933 assessed as growth inhibition after 24 hrs by broth microdilution method. The class given is functional. As to conditions: ATCC 25933, 24 h.
In another series the test system is Klebsiella pneumoniae. Put plainly: Antibacterial activity against Klebsiella pneumoniae ATCC 10031 assessed as growth inhibition after 24 hrs by broth microdilution method. As to conditions: ATCC 10031, 24 h. Format: functional.
Another series concerns Salmonella typhimurium. In words: Antibacterial activity against Salmonella typhimurium ATCC 14028 assessed as growth inhibition after 24 hrs by broth microdilution method. The class given is functional, Salmonella enterica subsp. enterica serovar Typhimurium. The note with it: Salmonella enterica, ATCC 14028, 24 h.
In another series the test system is Shigella dysenteriae. Put plainly: Antibacterial activity against Shigella dysenteriae ATCC 9752 assessed as growth inhibition after 24 hrs by broth microdilution method. The class given is functional. As to conditions: ATCC 9752, 24 h.
Another series concerns Escherichia coli. In words: Antibacterial activity against Escherichia coli ATCC 25922 assessed as growth inhibition after 24 hrs by broth microdilution method. As to conditions: ATCC 25922, 24 h. Format: functional.
The subject of series [2] is Staphylococcus epidermidis. Put plainly: Antibacterial activity against Staphylococcus epidermidis ATCC 12228 assessed as growth inhibition after 24 hrs by broth microdilution method. Format: functional. The note with it: ATCC 12228, 24 h.
The subject of the next series is Staphylococcus aureus. In words: Antibacterial activity against Staphylococcus aureus ATCC 6538p assessed as growth inhibition after 24 hrs by broth microdilution method. The class given is functional.
Another series deals with Bacillus spizizenii. In words: Antibacterial activity against Bacillus subtilis ATCC 6633 assessed as growth inhibition after 24 hrs by broth microdilution method. Format: functional. As to conditions: ATCC 6633, 24 h.
A short description of series [3]: Drug metabolism assessed as trypsin (unknown origin)-mediated digestion by measuring half life at 0.09 uM by HPLC analysis. As to conditions: human. Format: ADME.
Series [4] can be described thus: Drug metabolism assessed as trypsin (unknown origin)-mediated digestion by measuring compound remaining at 0.09 uM after 60 mins by HPLC analysis. The note with it: human, read-out: Stability. The class given is ADME.

As for Ac-TLKQFAKGVGKWLVK-NH2, the Drug metabolism result in series [1] is listed as “Active”. The MIC (as a rule, the lowest concentration that inhibits growth of the organism) is over 200 µg/mL with Pseudomonas aeruginosa; over 200 µg/mL with Proteus mirabilis; over 200 µg/mL with Klebsiella pneumoniae; over 200 µg/mL in the series with Salmonella typhimurium; over 200 µg/mL with Shigella dysenteriae; 200 µg/mL in the series on Escherichia coli. Further, the MIC in series [2] was over 200 µg/mL; with Staphylococcus aureus, 100 µg/mL; with Bacillus spizizenii it was 200 µg/mL.

As for `CC(=O)N[C@H](C(=O)N[C@@H](CC(C)C)C(=O)N[C@@H](CCCCN)C(=O)N[C@@H](CCC(N)=O)C(=O)N[C@@H](Cc1c[nH]c2ccccc12)C(=O)N[C@@]1(C)CCC/C=C\CCC[C@@H](C(=O)N[C@@H](CCCCN)C(=O)N[C@@H](CC(=O)O)C(=O)N[C@@H](CC(C)C)C(=O)N[C@H](C(=O)N[C@@H](CCCCN)C(N)=O)C(C)C)NC(=O)[C@H](C(C)C)NC(=O)CNC(=O)[C@H](CCCCN)NC1=O)[C@@H](C)O` (Ac-TLKQW[S5]KGV[Nle(6-ylidene)]KDLVK-NH2; staple (Z) 6-10), the half-life (as a rule, how long it takes for the measured level to halve) at 0.09 µM in [3] was 1.18 h. Further, the remaining at 1 h, 0.09 µM in series [4] is over 90%. Further, the minimum inhibitory concentration (MIC) was over 200 µg/mL with Pseudomonas aeruginosa; over 200 µg/mL in the series with Proteus mirabilis; 50 µg/mL (≈ 27.5 µM) in the series on Klebsiella pneumoniae; over 200 µg/mL in the series on Salmonella typhimurium; 50 µg/mL (≈ 27.5 µM) with Shigella dysenteriae; 100 µg/mL (≈ 54.9 µM) with Escherichia coli. Further, the MIC in series [2] came out at 100 µg/mL (≈ 54.9 µM); in the series on Staphylococcus aureus it was 6.25 µg/mL (≈ 3.43 µM); in the series with Bacillus spizizenii, 6.25 µg/mL (≈ 3.43 µM).

As to `CC(=O)N[C@H](C(=O)N[C@@H](CC(C)C)C(=O)N[C@@H](CCCCN)C(=O)N[C@@H](CCC(N)=O)C(=O)N[C@@H](Cc1ccccc1)C(=O)N[C@@]1(C)CCC/C=C\CCC[C@@H](C(=O)N[C@@H](CCCCN)C(=O)N[C@@H](CC(=O)O)C(=O)N[C@@H](CC(C)C)C(=O)N[C@H](C(=O)N[C@@H](CCCCN)C(N)=O)C(C)C)NC(=O)[C@H](Cc2c[nH]c3ccccc23)NC(=O)CNC(=O)[C@H](CCCCN)NC1=O)[C@@H](C)O` (Ac-TLKQF[S5]KGW[Nle(6-ylidene)]KDLVK-NH2; staple (Z) 6-10), the half-life at 0.09 µM in [3] was determined as 0.617 h. Further, in [4], the remaining at 1 h, 0.09 µM came to 75%. The MIC in the series on Pseudomonas aeruginosa is 200 µg/mL (≈ 107 µM); in the series with Proteus mirabilis, over 200 µg/mL; in the series with Klebsiella pneumoniae, 50 µg/mL (≈ 26.8 µM); in the series on Salmonella typhimurium, over 200 µg/mL; with Shigella dysenteriae, 50 µg/mL (≈ 26.8 µM); in the series on Escherichia coli it was 100 µg/mL (≈ 53.5 µM). Also, the MIC was over 200 µg/mL in series [2], 6.25 µg/mL (≈ 3.35 µM) in the series with Staphylococcus aureus and 6.25 µg/mL (≈ 3.35 µM) in the series with Bacillus spizizenii.

As for `CC(=O)N[C@H](C(=O)N[C@@H](CC(C)C)C(=O)N[C@@H](CCCCN)C(=O)N[C@@H](CCC(N)=O)C(=O)N[C@@H](Cc1ccccc1)C(=O)N[C@@]1(C)CCC/C=C\CCC[C@@H](C(=O)N[C@@H](CCCCN)C(=O)N[C@@H](Cc2c[nH]c3ccccc23)C(=O)N[C@@H](CC(C)C)C(=O)N[C@H](C(=O)N[C@@H](CCCCN)C(N)=O)C(C)C)NC(=O)[C@H](C(C)C)NC(=O)CNC(=O)[C@H](CCCCN)NC1=O)[C@@H](C)O` (Ac-TLKQF[S5]KGV[Nle(6-ylidene)]KWLVK-NH2; staple (Z) 6-10), the half-life at 0.09 µM in [3] is 1.2 h. Moreover, in [4], the remaining at 1 h, 0.09 µM is over 90%. The minimum inhibitory concentration (MIC) in the series with Pseudomonas aeruginosa, in the series with Proteus mirabilis, with Klebsiella pneumoniae, in the series with Salmonella typhimurium, with Shigella dysenteriae and with Escherichia coli was over 200 µg/mL throughout. Besides, the MIC was over 200 µg/mL in [2], 3.13 µg/mL (≈ 1.69 µM) in the series with Staphylococcus aureus and 3.13 µg/mL (≈ 1.69 µM) in the series on Bacillus spizizenii.

As for Ac-GILDTLKQFAKGVGKWLVKGAAQ-NH2, the Drug metabolism result in [1] was “Active”. In addition, the MIC in the series with Pseudomonas aeruginosa, in the series with Proteus mirabilis, in the series with Klebsiella pneumoniae, in the series on Salmonella typhimurium, in the series on Shigella dysenteriae and in the series on Escherichia coli was over 200 µg/mL each time. For the same compound, the MIC in series [2] is over 200 µg/mL; in the series with Staphylococcus aureus it was 100 µg/mL; with Bacillus spizizenii, 50 µg/mL.

The values above are taken from ChEMBL document CHEMBL3091300, “Truncated and constrained helical analogs of antimicrobial esculentin-2EM” (Bioorg Med Chem Lett, 2013).
